Measurements reported in publication PMC11699130, “Design and synthesis of antiproliferative 2-oxoindolin-3-ylidenes incorporating urea function with potential VEGFR-2 inhibitory properties” (Scientific Reports, 2025).

Experiments:
Assay type in all cases: cell-based
[1] = tested on: MCF7 (breast) carcinoma cell line; assay: MTT antiproliferation assay, MCF7; settings: for IC50: Homo sapiens, MTT, 72 h incubation, MCF7 (breast), read-out: IC50, μM ± SD, MCF7; for SI (safety/selectivity index), MCF7: in brackets after IC50, normal RPE1 relative to MCF7
Source text: (§1) Antiproliferation properties against normal RPE1 (human immortalized retinal pigment epithelial) cell line were also considered for safety/selectivity index (SI) determination of each respective agent synthesized (Table 1, Supplementary Figs. S61–S64). […]
(§2) All the biological studies conducted obey the standards and approved by the Research Ethics Committee, National Research Centre, Egypt (associated with project ID:
(§3) Antiproliferation properties
(§4) The synthesized compounds 12a‒j were screened for their antiproliferation properties against HCT116 (colon), MCF7 (breast) and PaCa2 (pancreatic) cancer cell lines by the standard mitochondrial dependent reduction of yellow MTT [3 -(4,5-dimethylthiazol-2- […]
(§5) considered as standard reference/drug. Cells were suspended in DMEM medium for MCF7, PaCa-2 and McCoy’s 5A for HCT116 in addition to 1% antibiotic–antimycotic mixture (10000 μg ml-1 potassium penicillin, 10000 μg ml-1 streptomycin sulfate and 25 μg ml-1 amphotericin B), 10% fetal bovine serum and 1% L-glutamine at 37 °C, under 5% CO2 and 95% humidity. Cells were seeded at concentration of 30000 cells per well in fresh complete growth medium in 96-well tissue culture microtiter plates for 24 h. Media […]
(§6) was aspirated, fresh complete medium was added and cells were incubated with different concentrations of the tested compound to give a final concentration of [50, 25, 12.5 and 6.25 μM “in addition to 3.125, 1.56 and 0.78 μM in case of high potent a nalogs”). 0.5% DMSO was used as a negative control. Triplicate wells were prepared for each individual dose. After 72 h of incubation, medium was aspirated, 40 μl MTT salt (2.5 mg ml -1) was added to each well and incubated for further 4 h at 37 °C. To stop the reaction and dissolve the formed crystals, 150 μl of 10% sodium dodecyl sulfate (SDS) in deionized water was added to each well and incubated overnight at 37 °C. The absorbance was then measured at 570 nm and a reference wavelength of 595 nm.
(§7) Data were collected as mean values for experiments performed in triplicates for each individual dose which had been measured by MTT assay. Control experiments did […]
(§8) The cell surviving fraction was calculated according to the following equation.
(§9) Surviving fraction = Opticaldensity(O.D.)oftreatedcells
(§10) The agents synthesized were also tested against RPE1 (normal human immortalized retinal pigment epithelial cell line) cell (in DMEM -F12 medium) to determine the toxicity/selectivity towards normal cells relative to the cancer cell lines […]
(§11) The IC50 (concentration required to produce 50% inhibition of cell growth compared to the control experiment) was determined using Graph-Pad PRISM version-5 software. Statistical calculations for determination of the mean and standard division (SD) values were determined by SPSS 16 so ftware. The observed anti-proliferative properties are presented in Table 1 ( Supplementary Figs. S61‒S64). […]

[2] = tested on: PaCa2 (pancreatic) carcinoma cell line; assay: MTT antiproliferation assay, PaCa2; settings: for IC50: PaCa-2, MTT, 72 h incubation, PaCa2 (pancreatic), read-out: IC50, μM ± SD, PaCa2; for SI (safety/selectivity index), PaCa2: in brackets after IC50, normal RPE1 relative to PaCa2
Source text: as §1, §2, §3, §4, §5, §6, §7, §8, §9, §10, §11

[3] = tested on: HCT116 (colon) carcinoma cell line; assay: MTT antiproliferation assay, HCT116; settings: for IC50: Homo sapiens, HCT-116, MTT, 72 h incubation, HCT116 (colon), read-out: IC50, μM ± SD, HCT116; for SI (safety/selectivity index), HCT116: in brackets after IC50, normal RPE1 relative to HCT116
Source text: as §1, §2, §3, §4, §5, §6, §7, §8, §9, §10, §11

[4] = tested on: RPE1 (human immortalized retinal pigment epithelial) cell line; assay: MTT assay on normal cells for safety/selectivity; settings: RPE-1, read-out: IC50, μM ± SD, RPE1
Description: as §1, §6, §7, §8, §9, §10, §11

[5] = target: T1, VEGFR-2 (Homo sapiens, UniProt P35968); assay: VEGFR-2 inhibitory properties by western blotting; settings: for Relative quantification (RQ): VEGFR-2 western blot band, normalised to beta actin, at 10 μM, control RQ 3.290; for inhibition at 10 µM: western blotting, read-out: % Inhibition against VEGFR-2
T1 construct: lysed cells; endogenous in cells
T1 sequence (P35968 20-1356): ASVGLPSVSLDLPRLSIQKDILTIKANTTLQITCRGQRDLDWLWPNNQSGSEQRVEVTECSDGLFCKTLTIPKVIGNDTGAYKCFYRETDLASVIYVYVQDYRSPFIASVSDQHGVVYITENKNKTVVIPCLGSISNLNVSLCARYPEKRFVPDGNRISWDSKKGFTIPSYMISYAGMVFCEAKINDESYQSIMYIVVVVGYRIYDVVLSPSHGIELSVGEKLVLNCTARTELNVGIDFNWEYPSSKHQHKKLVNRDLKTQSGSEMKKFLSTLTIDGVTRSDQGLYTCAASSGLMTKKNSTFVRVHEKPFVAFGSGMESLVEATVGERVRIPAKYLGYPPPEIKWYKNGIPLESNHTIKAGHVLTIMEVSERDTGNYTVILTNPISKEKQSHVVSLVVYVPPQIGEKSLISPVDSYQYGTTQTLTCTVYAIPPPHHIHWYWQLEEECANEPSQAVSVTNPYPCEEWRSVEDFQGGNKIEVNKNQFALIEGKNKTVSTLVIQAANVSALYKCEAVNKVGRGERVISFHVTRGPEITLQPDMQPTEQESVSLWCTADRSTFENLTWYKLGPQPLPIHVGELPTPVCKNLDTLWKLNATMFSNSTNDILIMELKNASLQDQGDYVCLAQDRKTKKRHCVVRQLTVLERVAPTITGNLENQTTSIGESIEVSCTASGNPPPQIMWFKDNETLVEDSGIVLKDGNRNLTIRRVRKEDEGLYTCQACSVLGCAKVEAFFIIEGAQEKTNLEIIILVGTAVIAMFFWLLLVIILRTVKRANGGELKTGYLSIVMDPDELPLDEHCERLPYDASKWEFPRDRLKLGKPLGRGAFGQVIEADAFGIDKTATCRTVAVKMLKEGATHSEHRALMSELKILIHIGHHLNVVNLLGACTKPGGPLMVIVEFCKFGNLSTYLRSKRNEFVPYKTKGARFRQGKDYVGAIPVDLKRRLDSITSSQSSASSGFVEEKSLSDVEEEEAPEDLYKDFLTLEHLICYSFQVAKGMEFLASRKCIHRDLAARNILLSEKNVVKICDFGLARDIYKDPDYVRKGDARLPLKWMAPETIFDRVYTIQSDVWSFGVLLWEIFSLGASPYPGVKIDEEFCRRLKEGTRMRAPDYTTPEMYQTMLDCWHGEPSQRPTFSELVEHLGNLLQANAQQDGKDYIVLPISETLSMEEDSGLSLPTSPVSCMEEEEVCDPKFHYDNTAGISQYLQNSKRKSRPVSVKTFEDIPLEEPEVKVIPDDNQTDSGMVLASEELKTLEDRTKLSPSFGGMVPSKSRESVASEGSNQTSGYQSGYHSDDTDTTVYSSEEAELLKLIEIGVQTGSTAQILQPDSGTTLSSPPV
Description: VEGFR-2 inhibitory properties […]
standard/drug) was determined at 10 μM by the western blotting technique obeying the manufacturer’s instruction (Santa Cruz Biotechnology, Inc .).5
Protein extraction procedure
The ReadyPrepTM protein extraction kit (total protein) provided by Bio-Rad Inc.
(Catalog #163-2086) employed by the manufacturer, was added to each sample of the lysed cells. Bradford Protein Assay Kit (SK3041) for quantitative protein analysis was provided by Bio-basic Inc. (Markham Ontario L3R 8T4 Canada). A Bradford assay was performed according to manufacturer’s instructions to determine protein concentration in each sample. 20 μg protein concentration of each sample was then loaded with an equal volume of 2x Laemmli sample buffer containing 4% SDS, 10% 2-mercaptoehtanol, 20% glycerol, 0.004% bromophenol blue and 0.125 M Tris HCl. The pH was checked and brought to 6.8. Each previous mixture was boiled at 95°C for 5 min to ensure denaturation of protein before loading on polyacrylamide gel electrophoresis.
Protein separation by electrophoresis
Samples were separated on a polyacrylamide gel; the procedure was abbreviated as SDS-PAGE form Sodium Dodecyl Sulfate PolyAcrylamide Gel Electrophoresis, which is a standard technique for separating proteins according to their molecular weight.
Polyacrylamide gels were performed using TGX Stain-Free™ FastCast™ Acrylamide Kit (SDS-PAGE), which was provided by Bio-Rad Laboratories inc Cat # 161-0181. The SDS-PAGE TGX Stain-Free FastCast was prepared according to manufacturer’s […]
Protein blotting (transfer of proteins from the gel to the membrane)
The gel was assembled in transfer sandwich from below to above (filter paper, PVDF membrane, gel and filter paper). The sandwich was placed in the transfer tank with 1x transfer buffer, which is composed of 25 mM Tris and 190 mM glycine and 20% methanol. Then, the blot was run for 7 min . at 25 V to allow protein bands transfer from gel to membrane using BioRad Trans-Blot Turbo.
The membrane was blocked in tris -buffered saline with Tween 20 (TBST) buffer and 3% bovine serum albumin (BSA) at room temperature for 1 hr. The components of blocking […]
buffer were as follow; 20 mM Tris pH 7.5, 150 mM NaCl, 0.1% Tween 20 and 3% bovine serum albumin (BSA).
Incubation with the primary antibody
Primary antibody of VEGFR2 was purchased. Primary antibody was diluted in TBST according to manufactured instructions.

| SMILES | IC50 [1] | IC50 [2] | IC50 [3] | Relative quantification (RQ) [5] | inhibition at 10 µM [5] | SI (safety/selectivity index), MCF7 [1] | SI (safety/selectivity index), PaCa2 [2] | SI (safety/selectivity index), HCT116 [3] | IC50 [4] | fold more potent than sunitinib ([2]; PaCa2, ratio of IC50 values) |
| --- | --- | --- | --- | --- | --- | --- | --- | --- | --- | --- |
| O=C(Nc1ccccc1)Nc1cccc(C(=O)/C=C2/C(=O)Nc3ccc(F)cc32)c1 [Compound 12c, (E)-1-{3-[2-(5-Fluoro-2-oxoindolin-3-ylidene)acetyl]phenyl}-3-phenylurea] | 5.81 ± 0.629 µM | 6.8 ± 0.514 µM | 14.4 ± 1.47 µM | 0.472 | 85.6% | 3.669 | 3.133 | 1.483 | 21.31 ± 0.026 µM | – |
| O=C(Nc1ccccc1)Nc1cccc(C(=O)/C=C2/C(=O)Nc3ccc(Cl)cc32)c1 [Compound 12e, (E)-1-{3-[2-(5-Chloro-2-oxoindolin-3-ylidene)acetyl]phenyl}-3-phenylurea] | 3.91 ± 0.78 µM | 7 ± 1.11 µM | 11.9 ± 2.53 µM | 0.538 | 83.6% | 3.738 | 2.087 | 1.229 | 14.6 ± 0.316 µM | – |
| O=C(Nc1ccccc1)Nc1ccc(C(=O)/C=C2/C(=O)Nc3ccc(Br)cc32)cc1 [Compound 12g, (E)-1-{4-[2-(5-Bromo-2-oxoindolin-3-ylidene)acetyl]phenyl}-3-phenylurea] | 4.41 ± 0.544 µM | 5.32 ± 0.228 µM | 6.29 ± 0.912 µM | 0.500 | 84.8% | 3.101 | 2.572 | 2.173 | 13.7 ± 0.85 µM | – |
| COc1ccc2c(c1)/C(=C\C(=O)c1cccc(NC(=O)Nc3ccccc3)c1)C(=O)N2 [Compound 12i, (E)-1-{3-[2-(5-Methoxy-2-oxoindolin-3-ylidene)acetyl]phenyl}-3-phenylurea] | 8.96 ± 0.767 µM | 7.64 ± 0.08 µM | 27.2 ± 2.95 µM | 0.634 | 80.7% | 3.370 | 3.952 | 1.111 | 30.2 ± 0.948 µM | – |
| CCN(CC)CCNC(=O)c1c(C)[nH]c(/C=C2\C(=O)Nc3ccc(F)cc32)c1C [Sunitinib, reference compound] | 11.8 ± 0.937 µM | 13.34 ± 0.091 µM | 9.57 ± 0.949 µM | – | – | – | – | – | – | – |

Compounds with a lower IC50 [1], results first:

| IC50 [1] | IC50 [2] | IC50 [3] | Relative quantification (RQ) [5] | inhibition at 10 µM [5] | SMILES | SI (safety/selectivity index), MCF7 [1] | SI (safety/selectivity index), PaCa2 [2] | SI (safety/selectivity index), HCT116 [3] | IC50 [4] | fold more potent than sunitinib ([2]; PaCa2, ratio of IC50 values) |
| --- | --- | --- | --- | --- | --- | --- | --- | --- | --- | --- |
| 3.13 ± 0.395 µM | 5.24 ± 0.502 µM | 13.3 ± 1.35 µM | 0.746 | 77.3% | O=C(Nc1ccccc1)Nc1cccc(C(=O)/C=C2/C(=O)Nc3ccccc32)c1 [Compound 12a, (E)-1-{3-[2-(2-Oxoindolin-3-ylidene)acetyl]phenyl}-3-phenylurea] | 4.355 | 2.606 | 1.022 | 13.6 ± 0.659 µM | – |
| 2.08 ± 0.126 µM | 4.09 ± 0.172 µM | 6.54 ± 0.452 µM | 0.422 | 87.2% | O=C(Nc1ccccc1)Nc1ccc(C(=O)/C=C2/C(=O)Nc3ccccc32)cc1 [Compound 12b, (E)-1-{4-[2-(2-Oxoindolin-3-ylidene)acetyl]phenyl}-3-phenylurea] | 4.014 | 2.043 | 1.277 | 8.36 ± 0.374 µM | – |
| 2.9 ± 0.3 µM | 4.96 ± 0.201 µM | 5.78 ± 0.593 µM | 0.491 | 85.1% | O=C(Nc1ccccc1)Nc1ccc(C(=O)/C=C2/C(=O)Nc3ccc(F)cc32)cc1 [Compound 12d, (E)-1-{4-[2-(5-Fluoro-2-oxoindolin-3-ylidene)acetyl]phenyl}-3-phenylurea] | 3.779 | 2.214 | 1.898 | 11 ± 0.429 µM | – |
| 3.41 ± 0.761 µM | 5.81 ± 0.63 µM | 6.58 ± 0.923 µM | 0.517 | 84.3% | O=C(Nc1ccccc1)Nc1ccc(C(=O)/C=C2/C(=O)Nc3ccc(Cl)cc32)cc1 [Compound 12f, (E)-1-{4-[2-(5-Chloro-2-oxoindolin-3-ylidene)acetyl]phenyl}-3-phenylurea] | 3.144 | 1.845 | 1.630 | 10.7 ± 0.766 µM | – |
| 2.07 ± 0.081 µM | 4 ± 0.369 µM | 5.58 ± 0.636 µM | 0.475 | 85.6% | Cc1ccc2c(c1)/C(=C\C(=O)c1ccc(NC(=O)Nc3ccccc3)cc1)C(=O)N2 [Compound 12h, (E)-1-{4-[2-(5-Methyl-2-oxoindolin-3-ylidene)acetyl]phenyl}-3-phenylurea] | 4.107 | 2.128 | 1.523 | 8.5 ± 0.466 µM | about 3.34 fold |
